Laboratory results from ChEMBL document CHEMBL1201862, “PubChem BioAssay data set” (2004).
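Five compound concentrations were applied to cells in 96-well plates for 48 hours; endpoints were derived by simple linear interpolation of the resulting dose-response curve. GI50 is the concentration that inhibits growth by half.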 Calls of active or inactive are those of the source. Rule as the data show it: active = GI50 up to about 1.1 µM and inactive = higher.

What was measured:
Assay in all cases: inhibition of tumour cell growth, NCI panel, 48 h
Hs-578T = test system: Hs-578T
MOLT-4 = test system: MOLT-4
OVCAR-8 = test system: OVCAR-8
EKVX = test system: EKVX
SN12C = test system: SN12C
A549 = test system: A549
NCI-H226 = test system: NCI-H226
HCT-116 = test system: HCT-116
TK-10 = test system: TK-10
HCC 2998 = test system: HCC 2998
OVCAR-3 = test system: OVCAR-3
NCI/ADR-RES = test system: NCI/ADR-RES
T47D = test system: T47D
UACC-257 = test system: UACC-257
SF-268 = test system: SF-268
M14 = test system: M14
CAKI-1 = test system: CAKI-1
U-251 = test system: U-251
HL-60 = test system: HL-60
MDA-MB-231 = test system: MDA-MB-231

Row | SMILES | GI50 (Hs-578T) | GI50 (MOLT-4) | GI50 (OVCAR-8) | GI50 (EKVX) | GI50 (SN12C) | GI50 (A549) | GI50 (NCI-H226) | GI50 (HCT-116) | GI50 (TK-10) | GI50 (HCC 2998) | GI50 (OVCAR-3) | GI50 (NCI/ADR-RES) | GI50 (T47D) | GI50 (UACC-257) | GI50 (SF-268) | GI50 (M14) | GI50 (CAKI-1) | GI50 (U-251) | GI50 (HL-60) | GI50 (MDA-MB-231)
1 | O=C1NC(N/N=C/c2ccccc2)=N/C1=C\c1ccco1 | 31.5 µM (inactive) | 37.1 µM (inactive) | 16.1 µM (inactive) | 36.7 µM (inactive) | 35.6 µM (inactive) | 27.7 µM (inactive) | 35.5 µM (inactive) | 42.9 µM (inactive) | 31.5 µM (inactive) | 32.1 µM (inactive) | 33.8 µM (inactive) | 32.7 µM (inactive) | 26.9 µM (inactive) | > 100 µM (inactive) | 24.5 µM (inactive) | 46.2 µM (inactive) | 37.3 µM (inactive) | 24.8 µM (inactive) | > 100 µM (inactive) | 65.2 µM (inactive)
2 | O=C(O)c1nc(-c2ccccc2)ncc1-c1nnnn1-c1ccccc1 | > 100 µM (inactive) | > 100 µM (inactive) | > 100 µM (inactive) | > 100 µM (inactive) | > 100 µM (inactive) | > 100 µM (inactive) | > 100 µM (inactive) | > 100 µM (inactive) | > 100 µM (inactive) | > 100 µM (inactive) | > 100 µM (inactive) | > 100 µM (inactive) | > 100 µM (inactive) | > 100 µM (inactive) | > 100 µM (inactive) | > 100 µM (inactive) | > 100 µM (inactive) | > 100 µM (inactive) | > 100 µM (inactive) | > 100 µM (inactive)
3 | CCCCn1c(C)c2c(c1C)C(=O)N(CC(O)CN1CCc3ccccc3C1)C2=O (stereo not given) | > 100 µM (inactive) | 38.3 µM (inactive) | > 100 µM (inactive) | 12.3 µM (inactive) | 90.4 µM (inactive) | 88.3 µM (inactive) | 68.7 µM (inactive) | 47.9 µM (inactive) | 67.3 µM (inactive) | 39.8 µM (inactive) | 67.8 µM (inactive) | 59.7 µM (inactive) | 35.6 µM (inactive) | 33.4 µM (inactive) | > 100 µM (inactive) | 40.1 µM (inactive) | 80.2 µM (inactive) | 81.5 µM (inactive) | 98.4 µM (inactive) | > 100 µM (inactive)
4 | COC(=O)CCC(=O)c1ccc2c(c1)CC1(C2)Cc2ccc3c(c2C1)CCCC3=O (stereo not given) | 56.1 µM (inactive) | 0.489 µM (active) | 26.7 µM (inactive) | 56.8 µM (inactive) | 38.1 µM (inactive) | > 57 µM (inactive) | 27.8 µM (inactive) | > 34 µM (inactive) | 41 µM (inactive) | 38.3 µM (inactive) | 10.1 µM (inactive) | 29 µM (inactive) | 34.8 µM (inactive) | 18.9 µM (inactive) | 33.8 µM (inactive) | 9.1 µM (inactive) | 16.4 µM (inactive) | 25 µM (inactive) | 3.94 µM (inactive) | > 73.5 µM (inactive)
5 | COc1ccc(/C=C(/C(=O)c2ccc(Cl)cc2)N2C=CC=CC2=C(C#N)C#N)cc1OC | 1.66 µM (inactive) | 0.685 µM (active) | 4.27 µM (inactive) | 2.75 µM (inactive) | 17.4 µM (inactive) | 14.4 µM (inactive) | 17.8 µM (inactive) | 2.06 µM (inactive) | 6.32 µM (inactive) | 1.99 µM (inactive) | 3.72 µM (inactive) | 10.4 µM (inactive) | 4.06 µM (inactive) | 6 µM (inactive) | 3.55 µM (inactive) | 3.7 µM (inactive) | 1.31 µM (inactive) | 12.1 µM (inactive) | 2.37 µM (inactive) | 6.24 µM (inactive)
6 | COC(=O)C1C2OC(C)(C)OC2CN1S(=O)(=O)c1ccc(C)cc1 (stereo not given) | > 100 µM (inactive) | > 100 µM (inactive) | > 100 µM (inactive) | 8.04 µM (inactive) | > 100 µM (inactive) | > 100 µM (inactive) | 0.0527 µM (active) | > 100 µM (inactive) | > 100 µM (inactive) | > 100 µM (inactive) | > 100 µM (inactive) | > 100 µM (inactive) | > 100 µM (inactive) | > 100 µM (inactive) | > 100 µM (inactive) | > 100 µM (inactive) | > 100 µM (inactive) | > 100 µM (inactive) | > 100 µM (inactive) | > 100 µM (inactive)
7 | O=S(=O)(O)C1CCC(O)C2NCCCC21 (stereo not given) | > 100 µM (inactive) | > 100 µM (inactive) | > 100 µM (inactive) | > 100 µM (inactive) | > 100 µM (inactive) | > 100 µM (inactive) | > 100 µM (inactive) | > 100 µM (inactive) | > 100 µM (inactive) | > 100 µM (inactive) | > 100 µM (inactive) | > 100 µM (inactive) | > 100 µM (inactive) | > 100 µM (inactive) | > 100 µM (inactive) | > 100 µM (inactive) | > 100 µM (inactive) | > 100 µM (inactive) | 20.7 µM (inactive) | > 100 µM (inactive)
